Measured values from patent US20250213575A1, “8-HETEROCYCLIC-3-(PHENYLSULFONYL)-[1,2,3]TRIAZOLO[1,5A]QUINAZOLIN-5(4H)-ONE DERIVATIVES AS ANTI-BACTERIALS” (priority 2022, published 2025).

Target: AgrA (Staphylococcus aureus, UniProt P0A0I7)
Assay: cell-based
Set-up: species or system S. aureus USA300 strain UAMS-1625
Conditions: for Ratio IC50 (in presence of HSA)/IC50 (in absence of HSA): 40 mg/mL HSA vs without HSA
[1] = IC50 at 40 mg/mL HSA, LB medium supplemented with 40 mg/mL human serum albumin
[2] = IC50 without HSA, LB medium, without HSA

AgrA, sequence (P0A0I7 whole entry): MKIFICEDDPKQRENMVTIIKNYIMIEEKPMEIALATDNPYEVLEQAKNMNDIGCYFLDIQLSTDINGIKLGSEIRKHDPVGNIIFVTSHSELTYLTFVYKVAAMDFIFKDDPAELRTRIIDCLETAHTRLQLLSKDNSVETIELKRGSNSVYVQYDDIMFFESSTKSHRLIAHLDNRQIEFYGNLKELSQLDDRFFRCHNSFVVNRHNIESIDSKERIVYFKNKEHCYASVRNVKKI

Cc1ccc(S(=O)(=O)c2n[nH]n3c2nc(=O)c2ccc(N4CCC5(CCNC[C@@H]5O)CC4)cc23)c(C)c1 [Compound 19, 3-(2,4-dimethylbenzenesulfonyl)-8-[(7R)-7-hydroxy-3,9-diazaspiro[5.5]undecan-3-yl]-1H,5H-[1,2,3]triazolo[1,5-a]quinazolin-5-one]
Ratio IC50 (in presence of HSA)/IC50 (in absence of HSA): +++ (ratio ≤ 25) | IC50 [1]: 19.1 to 95.7 µM | IC50 [2]: 1.91 to 9.57 µM

Cc1ccc(S(=O)(=O)c2n[nH]n3c2nc(=O)c2ccc(N4CC5(CC(O)C5)C4)cc23)c(C)c1 [Compound 20, 3-(2,4-dimethylbenzenesulfonyl)-8-{6-hydroxy-2-azaspiro[3.3]heptan-2-yl}-1H,5H-[1,2,3]triazolo[1,5-a]quinazolin-5-one]
Ratio IC50 (in presence of HSA)/IC50 (in absence of HSA): ++ (ratio ≤ 125) | IC50 [1]: 21.5 to 107 µM | IC50 [2]: < 2.15 µM

Cc1ccc(S(=O)(=O)c2n[nH]n3c2nc(=O)c2ccc(N4CC5(C4)CC(C)(O)C5)cc23)c(C)c1 [Compound 21, 3-(2,4-dimethylbenzenesulfonyl)-8-{6-hydroxy-6-methyl-2-azaspiro[3.3]heptan-2-yl}-1H,5H-[1,2,3]triazolo[1,5-a]quinazolin-5-one]
Ratio IC50 (in presence of HSA)/IC50 (in absence of HSA): ++ (ratio ≤ 125) | IC50 [1]: 20.9 to 104 µM | IC50 [2]: < 2.09 µM

Cc1ccc(S(=O)(=O)c2nnn3c2[nH]c(=O)c2ccc(N4CCN(C)CC4)cc23)c(C)c1 [Compound 22, 3-(2,4-dimethylbenzenesulfonyl)-8-(4-methylpiperazin-1-yl)-4H,5H-[1,2,3]triazolo[1,5-a]quinazolin-5-one]
Ratio IC50 (in presence of HSA)/IC50 (in absence of HSA): +++ (ratio ≤ 25) | IC50 [1]: 22.1 to 110 µM | IC50 [2]: < 2.21 µM

Cc1ccc(S(=O)(=O)c2nnn3c2[nH]c(=O)c2ccc(N4C[C@@H](C)N[C@@H](C)C4)cc23)c(C)c1 [Compound 24, 3-(2,4-dimethylbenzenesulfonyl)-8-[(3R,5S)-3,5-dimethylpiperazin-1-yl]-4H,5H-[1,2,3]triazolo[1,5-a]quinazolin-5-one]
Ratio IC50 (in presence of HSA)/IC50 (in absence of HSA): +++ (ratio ≤ 25) | IC50 [1]: 21.4 to 107 µM | IC50 [2]: 2.14 to 10.7 µM

Cc1ccc(S(=O)(=O)c2nnn3c2[nH]c(=O)c2ccc(N4C[C@@H](C)N(C)[C@@H](C)C4)cc23)c(C)c1 [Compound 25, rac-3-(2,4-dimethylbenzenesulfonyl)-8-[(3R,5S)-3,4,5-trimethylpiperazin-1-yl]-4H,5H-[1,2,3]triazolo[1,5-a]quinazolin-5-one]
Ratio IC50 (in presence of HSA)/IC50 (in absence of HSA): +++ (ratio ≤ 25) | IC50 [1]: < 20.8 µM | IC50 [2]: < 2.08 µM

Cc1ccc(S(=O)(=O)c2nnn3c2[nH]c(=O)c2ccc(N4CC(C)NC(C)C4)cc23)c(C)c1 (stereo not drawn) [Compound 26, 3-(2,4-dimethylbenzenesulfonyl)-8-(3,5-dimethylpiperazin-1-yl)-4H,5H-[1,2,3]triazolo[1,5-a]quinazolin-5-one]
Ratio IC50 (in presence of HSA)/IC50 (in absence of HSA): +++ (ratio ≤ 25) | IC50 [1]: 21.4 to 107 µM | IC50 [2]: 2.14 to 10.7 µM

Cc1ccc(S(=O)(=O)c2nnn3c2[nH]c(=O)c2ccc(N4CC(C)N(C)C(C)C4)cc23)c(C)c1 (stereo not drawn) [Compound 27, 3-(2,4-dimethylbenzenesulfonyl)-8-(3,4,5-trimethylpiperazin-1-yl)-4H,5H-[1,2,3]triazolo[1,5-a]quinazolin-5-one]
Ratio IC50 (in presence of HSA)/IC50 (in absence of HSA): +++ (ratio ≤ 25) | IC50 [1]: 20.8 to 104 µM | IC50 [2]: < 2.08 µM

Cc1ccc(S(=O)(=O)c2nnn3c2[nH]c(=O)c2ccc(N4CCN(C)C(C)(C)C4)cc23)c(C)c1 [Compound 29, 3-(2,4-dimethylbenzenesulfonyl)-8-(3,3,4-trimethylpiperazin-1-yl)-4H,5H-[1,2,3]triazolo[1,5-a]quinazolin-5-one]
Ratio IC50 (in presence of HSA)/IC50 (in absence of HSA): ++ (ratio ≤ 125) | IC50 [1]: 20.8 to 104 µM | IC50 [2]: 2.08 to 10.4 µM

Cc1ccc(S(=O)(=O)c2nnn3c2[nH]c(=O)c2ccc(N4CCN5CCOCC5C4)cc23)c(C)c1 (stereo not drawn) [Compound 30, 3-(2,4-dimethylbenzenesulfonyl)-8-{octahydropyrazino[2,1-c][1,4]oxazin-8-yl}-4H,5H-[1,2,3]triazolo[1,5-a]quinazolin-5-one]
Ratio IC50 (in presence of HSA)/IC50 (in absence of HSA): +++ (ratio ≤ 25) | IC50 [1]: 20.2 to 101 µM | IC50 [2]: 2.02 to 10.1 µM

CNC1CCN(c2ccc3c(=O)[nH]c4c(S(=O)(=O)c5ccc(C)cc5C)nnn4c3c2)CC1 [Compound 31, 3-(2,4-dimethylbenzenesulfonyl)-8-[4-(methylamino)piperidin-1-yl]-4H,5H-[1,2,3]triazolo[1,5-a]quinazolin-5-one]
Ratio IC50 (in presence of HSA)/IC50 (in absence of HSA): +++ (ratio ≤ 25) | IC50 [1]: 21.4 to 107 µM | IC50 [2]: < 2.14 µM

Cc1ccc(S(=O)(=O)c2nnn3c2[nH]c(=O)c2ccc(N4CCC(N(C)C)CC4)cc23)c(C)c1 [Compound 32, 8-[4-(dimethylamino)piperidin-1-yl]-3-(2,4-dimethylbenzenesulfonyl)-4H,5H-[1,2,3]triazolo[1,5-a]quinazolin-5-one]
Ratio IC50 (in presence of HSA)/IC50 (in absence of HSA): +++ (ratio ≤ 25) | IC50 [1]: 20.8 to 104 µM | IC50 [2]: 2.08 to 10.4 µM

Cc1ccc(S(=O)(=O)c2nnn3c2[nH]c(=O)c2ccc(N4CCC(N)CC4)cc23)c(C)c1 [Compound 33, 8-(4-aminopiperidin-1-yl)-3-(2,4-dimethylbenzenesulfonyl)-4H,5H-[1,2,3]triazolo[1,5-a]quinazolin-5-one]
Ratio IC50 (in presence of HSA)/IC50 (in absence of HSA): +++ (ratio ≤ 25) | IC50 [1]: < 22.1 µM | IC50 [2]: < 2.21 µM

CNC1CCN(c2ccc3c(=O)[nH]c4c(S(=O)(=O)c5ccc(C)cc5C)nnn4c3c2)C1 (stereo not drawn) [Compound 34, 3-(2,4-dimethylbenzenesulfonyl)-8-[3-(methylamino)pyrrolidin-1-yl]-4H,5H-[1,2,3]triazolo[1,5-a]quinazolin-5-one]
Ratio IC50 (in presence of HSA)/IC50 (in absence of HSA): ++ (ratio ≤ 125) | IC50 [1]: 22.1 to 110 µM | IC50 [2]: < 2.21 µM

Cc1ccc(S(=O)(=O)c2nnn3c2[nH]c(=O)c2ccc(N4CC[C@@H](N)C4)cc23)c(C)c1 [Compound 35, 8-[(3R)-3-aminopyrrolidin-1-yl]-3-(2,4-dimethylbenzenesulfonyl)-4H,5H-[1,2,3]triazolo[1,5-a]quinazolin-5-one]
Ratio IC50 (in presence of HSA)/IC50 (in absence of HSA): +++ (ratio ≤ 25) | IC50 [1]: 22.8 to 114 µM | IC50 [2]: < 2.28 µM

Cc1ccc(S(=O)(=O)c2nnn3c2[nH]c(=O)c2ccc(N4CCN5CCCC5C4)cc23)c(C)c1 (stereo not drawn) [Compound 36, 3-(2,4-dimethylbenzenesulfonyl)-8-{octahydropyrrolo[1,2-a]pyrazin-2-yl}-4H,5H-[1,2,3]triazolo[1,5-a]quinazolin-5-one]
Ratio IC50 (in presence of HSA)/IC50 (in absence of HSA): +++ (ratio ≤ 25) | IC50 [1]: 20.9 to 104 µM | IC50 [2]: < 2.09 µM

Cc1ccc(S(=O)(=O)c2nnn3c2[nH]c(=O)c2ccc(N4CCN5CCC[C@H]5C4)cc23)c(C)c1 [Compound 37, 8-[(8aS)-octahydropyrrolo[1,2-a]pyrazin-2-yl]-3-(2,4-dimethylbenzenesulfonyl)-4H,5H-[1,2,3]triazolo[1,5-a]quinazolin-5-one]
Ratio IC50 (in presence of HSA)/IC50 (in absence of HSA): +++ (ratio ≤ 25) | IC50 [1]: 20.9 to 104 µM | IC50 [2]: 2.09 to 10.4 µM

Cc1ccc(S(=O)(=O)c2nnn3c2[nH]c(=O)c2ccc(N4CCN5CCC[C@@H]5C4)cc23)c(C)c1 [Compound 38, 8-[(8aR)-octahydropyrrolo[1,2-a]pyrazin-2-yl]-3-(2,4-dimethylbenzenesulfonyl)-4H,5H-[1,2,3]triazolo[1,5-a]quinazolin-5-one]
Ratio IC50 (in presence of HSA)/IC50 (in absence of HSA): +++ (ratio ≤ 25) | IC50 [1]: 20.9 to 104 µM | IC50 [2]: 2.09 to 10.4 µM

Cc1ccc(S(=O)(=O)c2nnn3c2[nH]c(=O)c2ccc(N4CCC5C(CCN5C)C4)cc23)c(C)c1 (stereo not drawn) [Compound 39, 3-(2,4-dimethylbenzenesulfonyl)-8-{1-methyl-octahydro-1H-pyrrolo[3,2-c]pyridin-5-yl}-4H,5H-[1,2,3]triazolo[1,5-a]quinazolin-5-one]
Ratio IC50 (in presence of HSA)/IC50 (in absence of HSA): +++ (ratio ≤ 25) | IC50 [1]: 20.3 to 102 µM | IC50 [2]: < 2.03 µM

Cc1ccc(S(=O)(=O)c2nnn3c2[nH]c(=O)c2ccc(N4C[C@H]5CNC[C@H]5C4)cc23)c(C)c1 [Compound 40, 8-[(3aR,6aS)-octahydropyrrolo[3,4-c]pyrrol-2-yl]-3-(2,4-dimethylbenzenesulfonyl)-4H,5H-[1,2,3]triazolo[1,5-a]quinazolin-5-one]
Ratio IC50 (in presence of HSA)/IC50 (in absence of HSA): +++ (ratio ≤ 25) | IC50 [1]: 21.5 to 108 µM | IC50 [2]: 2.15 to 10.8 µM

Cc1ccc(S(=O)(=O)c2nnn3c2[nH]c(=O)c2ccc(N4CCN(C(C)(C)C)CC4)cc23)c(C)c1 [Compound 41, 8-(4-tert-butylpiperazin-1-yl)-3-(2,4-dimethylbenzenesulfonyl)-4H,5H-[1,2,3]triazolo[1,5-a]quinazolin-5-one]
Ratio IC50 (in presence of HSA)/IC50 (in absence of HSA): +++ (ratio ≤ 25) | IC50 [1]: 20.2 to 101 µM | IC50 [2]: 2.02 to 10.1 µM

COCCN1CCN(c2ccc3c(=O)[nH]c4c(S(=O)(=O)c5ccc(C)cc5C)nnn4c3c2)CC1 [Compound 42, 3-(2,4-dimethylbenzenesulfonyl)-8-[4-(2-methoxyethyl)piperazin-1-yl]-4H,5H-[1,2,3]triazolo[1,5-a]quinazolin-5-one]
Ratio IC50 (in presence of HSA)/IC50 (in absence of HSA): +++ (ratio ≤ 25) | IC50 [1]: 20.1 to 101 µM | IC50 [2]: 2.01 to 10.1 µM

Cc1ccc(S(=O)(=O)c2nnn3c2[nH]c(=O)c2ccc(N4CCN(CCO)CC4)cc23)c(C)c1 [Compound 43, 3-(2,4-dimethylbenzenesulfonyl)-8-[4-(2-hydroxyethyl)piperazin-1-yl]-4H,5H-[1,2,3]triazolo[1,5-a]quinazolin-5-one]
Ratio IC50 (in presence of HSA)/IC50 (in absence of HSA): ++ (ratio ≤ 125) | IC50 [1]: 20.7 to 104 µM | IC50 [2]: < 2.07 µM

Cc1ccc(S(=O)(=O)c2nnn3c2[nH]c(=O)c2ccc(N4CCN(C(C)CO)CC4)cc23)c(C)c1 (stereo not drawn) [Compound 44, 3-(2,4-dimethylbenzenesulfonyl)-8-[4-(1-hydroxypropan-2-yl)piperazin-1-yl]-4H,5H-[1,2,3]triazolo[1,5-a]quinazolin-5-one]
Ratio IC50 (in presence of HSA)/IC50 (in absence of HSA): ++ (ratio ≤ 125) | IC50 [1]: 20.1 to 101 µM | IC50 [2]: < 2.01 µM
